For one data set, the system named is Jurkat.MAIT cells. Kind of data set: Activation of Jurkat.MAIT cells (CD69 upregulation) co-incubated with C1R.MR1 cells. In kind it is cell-based. The settings on record: for Jurkat.MAIT activation compared to 5-A-RU added by itself: compound added with 5-A-RU to C1R.MR1 cells. The procedure: (§1) Jurkat cells transduced with genes encoding a MAIT TCR comprising the TRAV1-2-TRAJ33 invariant α chain, and a TRBV6-1 β chain, or SKW cells transduced with genes encoding the TRAV1-2-TRAJ33 invariant α chain with either w.t. Tyr95 or mutated Tyr95Ala or Tyr95Phe residues, paired with a TRBV6-1 β chain, were tested for activation by co-incubation with bacterial culture supernatant or compounds and C1R antigen presenting cells expressing MR1 (CIR.MR1, with Jurkat.MAIT cells), or C1R cells (SKW.MAIT cells) for 16 hr. Cells were subsequently stained with PE-Cy7-conjugated anti-CD3 (eBioscience), and APC-conjugated anti-CD69 (BD) antibodies as well as biotinylated anti-MR1 mAb 26.5 (Huang S. et al (2005)), followed by Streptavidin-PE (BD), before analysis by flow cytometry. Activation of Jurkat.MAIT or SKW.MAIT cells was measured by an increase in surface CD69 expression. MR1 expression was detected on gated C1R.MR1 cells in the same assay.

For a further data set, the system named is C1R.MR1 cells. The experiment in a line: Detection of MR1 expression on C1R.MR1 cells (mAb 26.5 staining). Format: cell-based. To be noted: for MR1 upregulation compared to 5-A-RU added by itself: compound added with 5-A-RU to C1R.MR1 cells. Here is the method: as §1
In a further data set the test system is SKW.MAIT cells. Kind of data set: Activation of wild-type, Y95A or Y95F mutant SKW.MAIT cells with C1R cells. Format: cell-based. The settings on record: compound added to C1R cells.
Source text: FIG. 4 is a graph showing MR1-Ag tetramers and MAIT activation. […] (c) EICs of m/z 315.09, or m/z 317.10. (d) (i) Activation assay and (ii) MR1 upregulation with 5-A-RU, methylglyoxal (MG), butane-2,3-dione (BD), glyoxal (G), or rRL-6-CH2OH. MFI of 26.5-PE antibody staining (e) (i) CD69 upregulation and (ii) MR1 upregulation with 5-A-RU, MG, BD, or G. MFI of 26.5-PE. (f) Activation of wild-type, Y95A, or Y95F mutant SKW.MAIT cells by 5-A-RU. Mean of triplicates with SEM. Experiments were performed at least twice (b, c, f) or 3 times (a, d, e).
as §1, with “Cells were subsequently stained with PE-Cy7-conjugated anti-CD3 (eBioscience), and APC-conjugated anti-CD69 (BD) antibodies as well as biotinylated anti-MR1 mAb 26.5 (Huang S. et al (2005)), followed by Streptavidin-PE (BD), before analysis by flow cytometry.” left out

For the next data set, the target named is T1, human MR1 (Homo sapiens, UniProt Q95460, C283S).
T1 construct: Soluble human MR1 a.a; made in house
Kind of data set: Refolding of MR1 and β2m with ligand. Format: binding.

For data set [1] the following is noted: for half-life: buffer. The procedure: FIG. 7 is a graph showing stability of 5-OP-RU (a) Reaction between 5-A-RU (0.5 mM) and methylglyoxal (3 eq) at pH 6.8, 37° C. in MilliQ water. RL-6-Me represents 6-methyl-8-D-ribityllumazine. (b) Stability of purified 5-OP-RU (65 μM) at pH 6.8 and 37° C. […] (c) Stability of purified 5-OP-RU (65 μM) at variable pH in aqueous TBS buffer (10 mM Tris, 150 mM NaCl, pH 8.0), MilliQ water (pH 6.8), or ammonium acetate buffer (20 mM, pH 5.4) at 15° C.
The purified 5-OP-RU was dissolved in aqueous TBS buffer (10 mM Tris, 150 mM NaCl, pH 8.0), MilliQ water (pH 6.8), or aqueous ammonium acetate buffer (20 mM, pH 5.4). The consumption of 5-OP-RU was immediately monitored by LCMS. The initial concentration was quantified by comparing to a standard solution of known concentration.

In data set [2] the test system is MR1. The experiment in a line: Crystal structure of MAIT TCR-MR1-Ag complexes. Format: binding, human. The procedure: Crystals of the soluble MAIT TCR-MR1-Ag complexes were obtained using the hanging drop vapour diffusion method. The MR1-2M-5-OP-RU, MR1-2M-5-OE-RU, MR1, MR1-K43A-2M-5-OP-RU and MAIT TCR were concentrated to 4 mg/ml, mixed in a 1:1 molar ratio, then […] of a precipitant solution consisting 0.1 M bis-tris propane pH 6.3, 0.2 M sodium acetate and varying concentrations of PEG 3350 between 8-14% w/v. Crystals were observed after incubation at 20° C. for 24 hours in dark conditions and cryoprotected prior to diffraction experiments by soaking in the crystallisation condition modified with between 10-15% v/v glycerol before cooling to 100K. Diffraction images were collected at the Australian Synchrotron MX2 beamline diffracting in a C2 spacegroup to 2.50 Å, 2.10 Å and 2.20 Å for the MR1-2M-5-OP-RU, MR1-2M-5-OE-RU, and MR1-K43A-2M-5-OP-RU complexes with the MAIT TCR respectively. The data were processed using Mosflm version 7.0.9 and scaled using AIMLESS or SCALA (MR1-K43A-2M-5-OP-RU only) from the CCP4 Suite. The phase problem was solved by molecular replacement using PHASER (McCoy A. J. (2007)), using MR1 ternary complex (PDB code 4L4T) (Patel O. et al (2013)) with CDR loops and ligands removed and using the Rfree reflection set from the model. […]

The subject of the next data set is MAIT cells. Kind of data set: MAIT cell accumulation in lungs after intranasal S. Typhimurium infection. In kind it is in vivo, mice. To be noted: with BR509ΔribDH (10^7) i.n.; 200 μl of 1.52 μM i.v. at d1, d3, d5; day 7 post infection.
For data set [3], the system named is MR1. The settings on record: cited from earlier work.
The mark [4] stands for this setting: compound added alone to C1R.MR1 cells.

A word on the half-life: it is the time needed for the level to fall by half in the phase considered. Lower therefore signals fast loss.

Like-named read-outs stand apart in the source and are kept apart here.

T1 sequence (Q95460 with tags, fused parts or gaps C283S): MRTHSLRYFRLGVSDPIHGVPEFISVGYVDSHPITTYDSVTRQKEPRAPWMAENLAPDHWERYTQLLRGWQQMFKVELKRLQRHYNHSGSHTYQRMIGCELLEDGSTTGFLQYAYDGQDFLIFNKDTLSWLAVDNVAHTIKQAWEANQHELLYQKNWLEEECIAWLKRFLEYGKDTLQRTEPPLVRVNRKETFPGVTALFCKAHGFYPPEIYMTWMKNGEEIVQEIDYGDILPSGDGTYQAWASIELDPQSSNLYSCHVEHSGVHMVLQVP
T1 sequence (P61769 21-119 partner): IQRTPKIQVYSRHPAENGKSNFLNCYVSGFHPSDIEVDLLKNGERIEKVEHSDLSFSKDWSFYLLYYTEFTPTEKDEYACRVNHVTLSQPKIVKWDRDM

`Nc1c(NC[C@H](O)[C@H](O)[C@H](O)CO)[nH]c(=O)[nH]c1=O` [5-A-RU, 5-amino-6-D-ribitylaminouracil]: the “activation of Jurkat.MAIT cells” value in the data set on Jurkat.MAIT cells (setting [4]) was “activation of Jurkat.MAIT cells”. In the data set on C1R.MR1 cells (setting [4]), the “MR1 cell surface upregulation” value was “MR1 cell surface upregulation”. Moreover, the “recognition by SKW.MAIT cells with Tyr95α mutated to Ala95 or Phe95” value with SKW.MAIT cells is “ablated recognition”. In addition, on human MR1, the “MR1-ligand complex on refolding MR1 with the compound alone” value is listed as “undetectable”.
For the compound `O=CC=Nc1c(NC[C@H](O)[C@H](O)[C@H](O)CO)[nH]c(=O)[nH]c1=O` [5-OE-RU, 5-(2-oxoethylideneamino)-6-D-ribitylaminouracil], the “stability (in words)” value in data set [1] is reported as “relatively unstable”. Also, the “binding mode in the MR1 cleft” value with MR1 [2] is “formed a Schiff base with Lys43 of MR1”.
Regarding `CC(=O)C=Nc1c(NC[C@H](O)[C@H](O)[C@H](O)CO)[nH]c(=O)[nH]c1=O` [5-OP-RU, 5-(2-oxopropylideneamino)-6-D-ribitylaminouracil], the half-life was 49 min in data set [1] (pH 5.4) and “around 2 h” in data set [1] (pH 6.8). In addition, the “binding mode in the MR1 cleft” value in the data set on MR1 [2] is on record as “formed a Schiff base with Lys43 of MR1”. The “accumulation of MAIT cells in lungs” value in the data set on MAIT cells is “accumulation is observed”.
In the case of `Cc1nc2c(=O)[nH]c(=O)nc-2n(C[C@H](O)[C@H](O)[C@H](O)CO)c1O` [RL-6-Me-7-OH, 7-hydroxy-6-methyl-8-D-ribityllumazine], the “binding mode in the MR1 cleft” value in the data set with MR1 [3] is on record as “non-covalently bound within MR1”.
On to `CC(=O)C(C)=O` [butane-2,3-dione], for which the “Jurkat.MAIT activation compared to 5-A-RU added by itself” value in the data set with Jurkat.MAIT cells was “nor was there an increase in Jurkat.MAIT activation”. The “MR1 upregulation compared to 5-A-RU added by itself” value in the data set on C1R.MR1 cells was “not enhanced”. Moreover, on human MR1, the “MR1-Ag complex on refolding MR1 in the presence of 5-A-RU and the compound” value (shortened to “MR1-Ag complex on refolding MR1”) is given as “failed to yield any MR1-Ag complexes”.
Turning to `O=CC=O` [glyoxal], the “Jurkat.MAIT activation compared to 5-A-RU added by itself” value in the data set with Jurkat.MAIT cells is recorded as “increase in Jurkat.MAIT activation”. For the same compound, the “MR1 upregulation compared to 5-A-RU added by itself” value in the data set with C1R.MR1 cells is given as “further increase in MR1 upregulation”. Also, on human MR1, the “MR1-Ag complex on refolding MR1” value is “led to a correctly folded MR1-Ag complex”.
Take `CC(=O)C=O` [methylglyoxal]: in the data set on Jurkat.MAIT cells, the “Jurkat.MAIT activation compared to 5-A-RU added by itself” value is listed as “increase in Jurkat.MAIT activation”. Besides, the “MR1 upregulation compared to 5-A-RU added by itself” value in the data set with C1R.MR1 cells was “further increase in MR1 upregulation”. The “MR1-Ag complex on refolding MR1” value at human MR1 is “led to a correctly folded MR1-Ag complex”.
For `Cc1cc2nc3c(=O)[nH]c(=O)nc-3n(C[C@H](O)[C@H](O)[C@H](O)CO)c2cc1C` [riboflavin], the “effect of riboflavin added during culture of NZ9000 on MAIT cell activation by the supernatant” value in the data set on Jurkat.MAIT cells (L. lactis NZ9000 supernatant, 3 μg/ml riboflavin) was “inhibited MAIT cell activation”.
As for “reduced 6-hydroxymethyl-8-D-ribityllumazine [rRL-6-CH2OH]”, the “recognition by SKW.MAIT cells with Tyr95α mutated to Ala95 or Phe95” value with SKW.MAIT cells is recorded as “ablated recognition”.

The values above are taken from patent US10245262B2, “Immunological reagents and uses therefor” (THE UNIVERSITY OF QUEENSLAND, priority 2014, dated 2019).
